# “And” between values parts separate entries of the source, which are not always exact repeats. Identical values can stand only once. Like-named read-outs stand apart in the source and are kept apart here.
# Legend:
# PWWP2B = test: Gene expression of PWWP2B in HepG2 cells exposed to compound (microarray, log2 treatment:control ratio); assay type: cell-based, human
# rodents = conditions: cited from earlier work
# [1] = tested on: conventional in vitro genotoxicity assays; conditions: cited from earlier work
# HepG2 cell [2] = tested on: HepG2 cell
# Salmonella typhimurium = conditions: cited from earlier work
# HepG2 cell [3] = test: Class prediction of in vivo genotoxicity by the method of the invention (Ames stratification plus three-gene expression in HepG2); conditions: for Prediction (class prediction results using the method of the invention): 62 compounds, three replicates, HepG2 24 h; for At least ⅔ genes +?: per single measurement, GTX when at least two out of three genes above reference value
# NR0B2 = test: Gene expression of NR0B2 in HepG2 cells exposed to compound (microarray, log2 treatment:control ratio); assay type: cell-based, human
# LOC100505880 = test: Gene expression of LOC100131914/LOC100505880 in HepG2 cells exposed to compound (microarray, log2 treatment:control ratio); assay type: cell-based, human
# SLC40A1 = test: Gene expression of SLC40A1 in HepG2 cells exposed to compound (microarray, log2 treatment:control ratio); assay type: cell-based, human; conditions: HepG2 cells; for Log2 treatment: control ratio SLC40A1: 24 h exposure, Ames negative compounds, one line per replicate of triplicate experiments; for SLC40A1: expression versus reference value, single measurement of three
# PNMA6A = test: Gene expression of PNMA6A in HepG2 cells exposed to compound (microarray, log2 treatment:control ratio); assay type: cell-based, human; conditions: HepG2 cells; for Log2 treatment: control ratio PNMA6A: 24 h exposure, Ames negative compounds, one line per replicate of triplicate experiments; for PNMA6A: expression versus reference value, single measurement of three
# C10orf65/HOGA1 = test: Gene expression of C10orf65/HOGA1 in HepG2 cells exposed to compound (microarray, log2 treatment:control ratio); assay type: cell-based, human; conditions: for Log2 treatment: control ratio C10orf65/HOGA1: 24 h exposure, Ames negative compounds, one line per replicate of triplicate experiments; for C10orf65/HOGA1: expression versus reference value, single measurement of three
# [4] = positive when at least one in vivo assay (MN, CA) positive, equivocal considered positive
# [5] = standard in vivo genotoxicity designation
Compound,PWWP2B above or below the reference value (PWWP2B),Standard (in vivo genotoxicity designation) (rodents; in vivo),In vitro GTX [1],Log2 treatment: control ratio PWWP2B (PWWP2B),Average result over three measurements (HepG2 cell [2]),Ames (Salmonella typhimurium),In vivo GTX (rodents; [4]),Prediction (class prediction results using the method of the invention) (HepG2 cell [3]),Log2 treatment: control ratio SLC40A1 (SLC40A1),Log2 treatment: control ratio PNMA6A (PNMA6A),Log2 treatment: control ratio C10orf65/HOGA1 (C10orf65/HOGA1),C10orf65/HOGA1 (C10orf65/HOGA1),PNMA6A (PNMA6A),Standard (rodents; [5]),further results
OCCCl [2-Cl],+ (Plus sign indicates a value above the reference value),NGTX,+,,,,,,,,,,,,Results in the conventional in vitro genotoxicity assays ([1]; see Table 5): positive results
CC(=O)Nc1ccc2c(c1)Cc1ccccc1-2 [2AAF],,GTX,+,−0.045 and −0.14 and 0.042,GTX,+,+,GTX+,,,,,,,
Oc1cccc2cccnc12 [8HQ],,NGTX,+,0.014 and −0.165 and −0.069,GTX,+,,GTX+,,,,,,,
Nc1ccc(-c2ccccc2)cc1 [ABP],+ (Plus sign indicates a value above the reference value),,,,,,+,,,,,,,,NR0B2 above or below the reference value (NR0B2): + (Plus sign indicates a value above the reference value)
Nc1ccc(-c2ccc(N)cc2)cc1 [BZ],,GTX,+,,GTX,+,,,,,,,,,NR0B2 above or below the reference value (NR0B2): + (key: +: Plus sign indicates a value above the reference value; −: minus sign indicates a value below the reference value); At least ⅔ genes +? (HepG2 cell [2]): GTX; Prediction (class prediction results using the method of the invention) (HepG2 cell [2]): GTX; In vivo GTX (rodents; in vivo): +
O=P1(N(CCCl)CCCl)NCCCO1 (stereo not drawn) [CP],,GTX,+,0.042 and −0.221 and 0.073,GTX,+,+,GTX,,,,,,,LOC100505880 above or below the reference value (LOC100505880): + (Plus sign indicates a value above the reference value); Log2 treatment: control ratio LOC100505880 (LOC100505880): −0.031 and −0.01 and 0.139; At least ⅔ genes +? (HepG2 cell [2]): GTX
CCN(CC)N=O [DEN],+ (Plus sign indicates a value above the reference value),GTX,+,,,,+,,,,,,,,LOC100505880 above or below the reference value (LOC100505880): + (Plus sign indicates a value above the reference value)
"C=CC(=O)OCC [EtAc, Ethylacrylate]",,,+,,,−,,GTX,−0.448 and 0.634 and 0.031,0.375 and 0.243 and 0.409,0.391 and 0.429 and 0.624,+ (above the reference value),,,Standard (rodents; in vivo): NGTX; Average result over three measurements (HepG2 cell [3]): GTX; At least ⅔ genes +? (HepG2 cell [3]): GTX
CCc1ccccc1 [EthylB],,,+,,,−,,NGTX,−0.23 and −0.141 and 0.295,0.313 and 0.434 and 0.392,−0.18 and 0.116 and −0.084,− (below the reference value),+ (above the reference value),NGTX,SLC40A1 (SLC40A1): − (below the reference value)
Cn1c(N)nc2c3cccnc3ccc21 [IQ],+ (Plus sign indicates a value above the reference value),GTX,+,0.188 and −0.003 and −0.052,GTX,+,+,GTX,,,,,,,LOC100505880 above or below the reference value (LOC100505880): + (Plus sign indicates a value above the reference value); At least ⅔ genes +? (HepG2 cell [2]): GTX
CCC1(c2ccccc2)C(=O)NC(=O)NC1=O [PhB],− (minus sign indicates a value below the reference value),NGTX,+,−0.169 and −0.272 and −0.154,NGTX,+,,,,,,,,,LOC100505880 above or below the reference value (LOC100505880): − (minus sign indicates a value below the reference value); Log2 treatment: control ratio LOC100505880 (LOC100505880): −0.154 and −0.38 and −0.303; At least ⅔ genes +? (HepG2 cell [2]): NGTX; Classification of NGTX compounds by the method of the invention (false positives) (HepG2 cell [2]): misclassification; Prediction (class prediction results using the method of the invention) (HepG2 cell [2]): NGTX; In vivo GTX (rodents; in vivo): −; Results in the conventional in vitro genotoxicity assays [1]: positive results
CCOc1ccc(NC(C)=O)cc1 [Phen],,,+,,,−,,NGTX,−0.646 and 0.127 and −0.048,−0.023 and 0.218 and −0.237,0.043 and 0.056 and 0.034,− (below the reference value),− (below the reference value),NGTX,SLC40A1 (SLC40A1): − (below the reference value)
"Oc1cccc(O)c1 [RR, Resorcinol]",,,+,,,,,GTX,,,,+ (above the reference value),+ (above the reference value),NGTX,SLC40A1 (SLC40A1): + (above the reference value); Ames (Salmonella typhimurium; Ames results based on NTP data): −; Results in the conventional in vitro genotoxicity assays ([1]; see Table 5): positive results; Average result over three measurements (HepG2 cell [3]): GTX; Classification of NGTX compounds by the method of the invention (false positives) (HepG2 cell [3]; in vivo NGTX compounds): misclassification; At least ⅔ genes +? (HepG2 cell [3]): GTX
CCC[CH2][Sn]([CH2]CCC)([CH2]CCC)[O][Sn]([CH2]CCC)([CH2]CCC)[CH2]CCC [TBTO],,,+,,,−,+,GTX,0.604 and 1.649 and 0.208,0.909 and 0.663 and 0.456,0.426 and 0.098 and 0.858,,+ (above the reference value),GTX,Average result over three measurements (HepG2 cell [3]): GTX; At least ⅔ genes +? (HepG2 cell [3]): GTX
Clc1cc2c(cc1Cl)Oc1cc(Cl)c(Cl)cc1O2 [TCDD],,,−,,,−,,NGTX,0.169 and −0.21 and 0.104,−0.041 and 0.26 and 0.072,−0.107 and 0.056 and 0.151,,,NGTX,SLC40A1 (SLC40A1): − (below the reference value)
CCCCCCCCCCCCCC(=O)O[C@@H]1[C@@H](C)[C@@]2(O)[C@@H](C=C(CO)C[C@]3(O)C(=O)C(C)=C[C@@H]23)[C@H]2C(C)(C)[C@]12OC(C)=O [TPA],,,−,,,−,,NGTX,−0.327 and 1.338 and 0.199,−0.493 and −0.137 and −0.26,0.108 and −0.423 and 0.14,− (below the reference value),− (below the reference value),NGTX,
